# Biological target: T1, human liver glycogen phosphorylase (Homo sapiens, UniProt P06737)
# T1 construct: made in house; host or cells: Sf9 insect cells (suspension of disrupted cells, diluted in BES buffer, not purified)
# T1 sequence (P06737 1-847): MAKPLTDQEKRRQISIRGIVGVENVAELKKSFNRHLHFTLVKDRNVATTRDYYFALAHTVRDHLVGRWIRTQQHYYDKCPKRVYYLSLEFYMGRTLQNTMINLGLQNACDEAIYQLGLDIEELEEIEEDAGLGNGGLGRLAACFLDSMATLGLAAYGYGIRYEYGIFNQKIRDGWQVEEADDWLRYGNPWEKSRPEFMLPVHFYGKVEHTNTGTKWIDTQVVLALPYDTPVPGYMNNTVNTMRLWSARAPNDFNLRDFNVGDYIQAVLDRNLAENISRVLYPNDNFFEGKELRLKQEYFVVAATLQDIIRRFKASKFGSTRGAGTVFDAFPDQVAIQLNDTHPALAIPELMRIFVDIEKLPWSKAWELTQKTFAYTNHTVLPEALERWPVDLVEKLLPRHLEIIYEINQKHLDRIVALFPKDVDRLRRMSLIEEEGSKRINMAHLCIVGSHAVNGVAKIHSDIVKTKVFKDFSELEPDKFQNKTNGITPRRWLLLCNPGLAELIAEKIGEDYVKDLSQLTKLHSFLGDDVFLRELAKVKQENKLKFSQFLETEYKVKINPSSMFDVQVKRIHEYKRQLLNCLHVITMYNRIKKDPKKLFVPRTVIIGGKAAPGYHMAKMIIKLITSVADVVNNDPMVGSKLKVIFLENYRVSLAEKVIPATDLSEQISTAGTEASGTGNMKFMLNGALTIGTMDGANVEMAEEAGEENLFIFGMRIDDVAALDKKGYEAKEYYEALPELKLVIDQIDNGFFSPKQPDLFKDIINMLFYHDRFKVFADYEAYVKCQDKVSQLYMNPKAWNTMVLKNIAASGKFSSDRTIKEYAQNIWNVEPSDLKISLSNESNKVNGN
# Assay: Liver glycogen phosphorylase activity, forward reaction system (NADPH detection at 340 nm)
# Type: biochemical
# Details: enzyme inhibitory activity against recombinant human liver glycogen phosphorylase (Sf9 cell lysate), room temperature, 75 minutes
# Protocol: The glycogen phosphorylase activity was determined by a method using a forward reaction system.
# The following method was used to determine the glycogen phosphorylase activity using a forward reaction system. Glucose-1-phosphate generated from glycogen by glycogen phosphorylase was converted to glucono-δ-lactone-6-phosphate by transphosphorylation and dehydrogenation reactions using phosphoglucomutase and glucose-6-phosphate dehydrogenase (G6PDH). At this time, NADPH generated from NADP in the dehydrogenation reaction by G6PDH was detected.
# An enzyme solution of human liver glycogen phosphorylase was obtained by diluting with 100 mmol/L BES buffer (pH 6.8, containing 2 mmol/L EDTA) a suspension disrupted Sf9 cells in which a recombinant human liver glycogen phosphorylase was forcibly expressed. Phosphate buffer (16 mmol/L KH2PO4, containing 24 mmol/L Na2HPO4) was used as a substrate solution. A mixture of 8 U/mL phosphoglucomutase and 60 U/mL G6PDH was prepared with BES buffer. A reaction buffer (1.4 mmol/L NADP, 30 mmol/L MgCl2, 8 μmol/L glucose-1,6-diphosphate, 8 mg/mL glycogen, 40 mmol/L BES, containing 0.8 mmol/L EDTA) and a glucose solution (75 mmol/L glucose and 100 mmol/L BES, containing 2 mmol/L EDTA) were prepared. A test substance was dissolved in 1% DMSO aqueous solution.
# To a mixture of the glucose solution (20 μL), the substrate solution (20 μL), the reaction buffer (100 μL), and the test substance (20 μL), the recombinant human liver glycogen phosphorylase solution (20 μL), and a mixture (20 μL) of phosphoglucomutase and G6PDH were added to initiate an enzymatic reaction. To a control, 1% DMSO aqueous solution was added instead of the test substance. A solution to which the substrate was not added was used as a blank. After initiation of the reaction, absorbance at 340 nm was measured immediately. The reaction was performed at room temperature for 75 minutes, and then absorbance at 340 nm was measured again. The enzyme activity was obtained by deducting the change in absorbance of the blank for 75 minutes from the change in absorbance over 75 minutes. The inhibition rate (%) of the test substance was calculated by “(1−(enzyme activity of test substance)/(enzyme activity of control))×100”.
# “IC50” represents an enzyme inhibitory activity against human liver glycogen phosphorylase.
row,SMILES,IC50
1,"Cc1onc(-c2ccc(S(C)(=O)=O)cc2)c1CNC(=O)c1cc(NC(=O)c2cc(F)c(F)cc2Cl)[nH]n1 [Example 1-16, 5-(2-chloro-4,5-difluoro-benzoylamino)-1H-pyrazole-3-carboxylic acid [3-(4-methanesulfonyl-phenyl)-5-methylisoxazol-4-ylmethyl]-amide]",< 100 nM
2,"Cc1nc(-c2ccc(-c3ccccc3)cc2)c(CNC(=O)c2cc(NC(=O)c3cc(F)c(F)cc3Cl)[nH]n2)o1 [Example 1-32, 5-(2-chloro-4,5-difluoro-benzoylamino)-1H-pyrazole-3-carboxylic acid (4-biphenyl-4-yl-2-methyl-oxazol-5-ylmethyl)-amide]",< 100 nM
3,"Cc1nc(COC(c2ccccc2)(c2ccccc2)c2ccccc2)oc1CNC(=O)c1cc(NC(=O)c2cc(F)c(F)cc2Cl)[nH]n1 [Example 1-43, 5-(2-chloro-4,5-difluoro-benzoylamino)-1H-pyrazole-3-carboxylic acid (4-methyl-2-trityloxymethyl-oxazol-5-ylmethyl)-amide]",> 300 nM
4,"Cc1onc(-c2ccc(C#N)cc2)c1CNC(=O)c1cc(NC(=O)c2cc(F)c(F)cc2Cl)[nH]n1 [Example 1-14, 5-(2-chloro-4,5-difluoro-benzoylamino)-1H-pyrazole-3-carboxylic acid [3-(4-cyano-phenyl)-5-methylisoxazol-4-ylmethyl]-amide]",< 100 nM
5,"Cc1nc(C(=O)OCc2ccccc2)oc1CNC(=O)c1cc(NC(=O)c2cc(F)c(F)cc2Cl)[nH]n1 [Example 3-17, 5-(2-chloro-4,5-difluoro-benzoylamino)-1H-pyrazole-3-carboxylic acid (2-benzyloxycarbonyl-4-methyl-oxazol-5-ylmethyl)-amide]",< 100 nM
6,"Cc1nc(C(=O)NCc2ccccc2)oc1CNC(=O)c1cc(NC(=O)c2cc(F)c(F)cc2Cl)[nH]n1 [Example 3-16, 5-(2-chloro-4,5-difluoro-benzoylamino)-1H-pyrazole-3-carboxylic acid (2-benzylcarbamoyl-4-methyl-oxazol-5-ylmethyl)-amide]",< 100 nM
7,"Cc1c(CNC(=O)c2cc(NC(=O)c3cc(F)c(F)cc3Cl)[nH]n2)nnn1Cc1ccc(Cl)cc1 [Example 1-63, 5-(2-chloro-4,5-difluoro-benzoylamino)-1H-pyrazole-3-carboxylic acid [1-(4-chloro-benzyl)-5-methyl-1H-[1,2,3]triazol-4-ylmethyl]-amide]",< 100 nM
8,"Cc1nc(Cn2nnc(CNC(=O)c3cc(NC(=O)c4cc(F)c(F)cc4Cl)[nH]n3)c2C)cs1 [Example 1-65, 5-(2-chloro-4,5-difluoro-benzoylamino)-1H-pyrazole-3-carboxylic acid [5-methyl-1-(2-methyl-thiazol-4-ylmethyl)-1H-[1,2,3]triazol-4-ylmethyl]-amide]",< 100 nM
9,"Cc1onc(-c2ccc(N(C)C)cc2)c1CNC(=O)c1cc(NC(=O)c2cc(F)c(F)cc2Cl)[nH]n1 [Example 1-15, 5-(2-chloro-4,5-difluoro-benzoylamino)-1H-pyrazole-3-carboxylic acid [3-(4-dimethylamino-phenyl)-5-methylisoxazol-4-ylmethyl]-amide]",< 100 nM
10,"Cc1ccc(-c2nc(C)c(CNC(=O)c3cc(NC(=O)c4cc(F)c(F)cc4Cl)[nH]n3)s2)s1 [Example 1-7, 5-(2-chloro-4,5-difluoro-benzoylamino)-1H-pyrazole-3-carboxylic acid [4-methyl-2-(5-methyl-thiophen-2-yl)-thiazol-5-ylmethyl]-amide]",< 100 nM
11,"O=C(NCc1nnc(-c2ccccc2O)o1)c1cc(NC(=O)c2cc(F)c(F)cc2Cl)[nH]n1 [Example 1-58, 5-(2-chloro-4,5-difluoro-benzoylamino)-1H-pyrazole-3-carboxylic acid [5-(2-hydroxy-phenyl)-[1,3,4]oxadiazol-2-ylmethyl]-amide]",< 100 nM
12,"Cc1nc(C23CC4CC(CC(C4)C2)C3)c(CNC(=O)c2cc(NC(=O)c3cc(F)c(F)cc3Cl)[nH]n2)s1 [Example 1-11, 5-(2-chloro-4,5-difluoro-benzoylamino)-1H-pyrazole-3-carboxylic acid (4-adamantan-1-yl-2-methyl-thiazol-5-ylmethyl)-amide]",< 100 nM

# Next, values leading:
row,IC50,SMILES
1,< 100 nM,"CCOC(=O)c1[nH]c(CNC(=O)c2cc(NC(=O)c3cc(F)c(F)cc3Cl)[nH]n2)nc1C [Example 1-13, 5-(2-chloro-4,5-difluoro-benzoylamino)-1H-pyrazole-3-carboxylic acid (5-ethoxycarbonyl-4-methyl-1H-imidazol-2-ylmethyl)-amide]"
2,< 100 nM,"Cc1ccc(-c2nc(C)oc2CNC(=O)c2cc(NC(=O)c3cc(F)c(F)cc3Cl)[nH]n2)cc1 [Example 1-29, 5-(2-chloro-4,5-difluoro-benzoylamino)-1H-pyrazole-3-carboxylic acid [4-(4-methyl-phenyl)-2-methyl-oxazol-5-ylmethyl]-amide]"
3,< 100 nM,"COc1cccc(-c2nc(C)oc2CNC(=O)c2cc(NC(=O)c3cc(F)c(F)cc3Cl)[nH]n2)c1 [Example 1-31, 5-(2-chloro-4,5-difluoro-benzoylamino)-1H-pyrazole-3-carboxylic acid [4-(3-methoxy-phenyl)-2-methyl-oxazol-5-ylmethyl]-amide]"
4,< 100 nM,"Cc1nc(C2CC2)oc1CNC(=O)c1cc(NC(=O)c2cc(F)c(F)cc2Cl)[nH]n1 [Example 1-39, 5-(2-chloro-4,5-difluoro-benzoylamino)-1H-pyrazole-3-carboxylic acid (2-cyclopropyl-4-methyl-oxazol-5-ylmethyl)-amide]"
5,< 100 nM,"COCc1nc(C)c(CNC(=O)c2cc(NC(=O)c3cc(F)c(F)cc3Cl)[nH]n2)o1 [Example 1-45, 5-(2-chloro-4,5-difluoro-benzoylamino)-1H-pyrazole-3-carboxylic acid (2-methoxymethyl-4-methyl-oxazol-5-ylmethyl)-amide]"
6,< 100 nM,"CCOC(=O)COCc1nc(C)c(CNC(=O)c2cc(NC(=O)c3cc(F)c(F)cc3Cl)[nH]n2)o1 [Example 1-48, 5-(2-chloro-4,5-difluoro-benzoylamino)-1H-pyrazole-3-carboxylic acid (2-ethoxycarbonylmethoxymethyl-4-methyl-oxazol-5-ylmethyl)-amide]"
7,< 100 nM,"CCOC(=O)c1cc(CNC(=O)c2cc(NC(=O)c3cc(F)c(F)cc3Cl)[nH]n2)on1 [Example 1-23, 5-(2-chloro-4,5-difluoro-benzoylamino)-1H-pyrazole-3-carboxylic acid (3-ethoxycarbonylisoxazol-5-ylmethyl)-amide]"
8,< 100 nM,"CCOC(=O)c1oc(CNC(=O)c2cc(NC(=O)c3cc(F)c(F)cc3Cl)[nH]n2)nc1C [Example 1-51, 5-(2-chloro-4,5-difluoro-benzoylamino)-1H-pyrazole-3-carboxylic acid (5-ethoxycarbonyl-4-methyl-oxazol-2-ylmethyl)-amide]"
9,< 100 nM,"Cc1nc(C(=O)O)c(CNC(=O)c2cc(NC(=O)c3cc(F)c(F)cc3Cl)[nH]n2)o1 [Example 3-6, 5-(2-chloro-4,5-difluoro-benzoylamino)-1H-pyrazole-3-carboxylic acid (4-carboxy-2-methyl-oxazol-5-ylmethyl)-amide]"
10,< 100 nM,"Cc1nc(CNC(=O)c2cc(NC(=O)c3cc(F)c(F)cc3Cl)[nH]n2)oc1C(=O)O [Example 3-18, 5-(2-chloro-4,5-difluoro-benzoylamino)-1H-pyrazole-3-carboxylic acid (5-carboxy-4-methyl-oxazol-2-ylmethyl)-amide]"

# Reference: patent publication US20090036450A1, “PYRAZOLE COMPOUNDS AND USE THEREOF” (JAPAN TOBACCO, INC., priority 2006, published 2009)
